The values below are quoted from earlier work in patent US6500409B1, “Synergistic antiplaque/antigingivitis oral composition” (Colgate Palmolive Company, priority 2000, dated 2002).

Series [1] relates to plaque adherence to teeth. The note with it: in vitro.
Series [2] has as its system S. mutans. To be noted: in vitro.

Molecules are shown by their SMILES.

As to `C=CCc1ccc(O)c(-c2ccc(O)c(CC=C)c2)c1` [honokiol], the “Inhibition of plaque adherence to teeth, in words” value in series [1] is “not found to be inhibitory”. In series [2], the “Bactericidal activity in MIC test, in words” value is “bactericidal”.

`C=CCc1ccc(O)c(-c2cc(CC=C)ccc2O)c1` [magnolol]: the “Inhibition of plaque adherence to teeth, in words” value in series [1] is “not found to be inhibitory”. For the same molecule, in series [2], the “Bactericidal activity in MIC test, in words” value is “bactericidal”.
